Results from patent US7118744B2, “Immunogenic compositions for induction of anti-tumor immunity” (Yeda Research and Development Co., Ltd., priority 1997, dated 2006).
Ends that are not written are not given here.

What was measured:
[1] = tested on: p53; test: Induction of anti-p53 antibodies in immunized mice, ELISA on wild type p53; format: in vivo, mouse; settings: BALB/c mice immunized with 100 μg of peptide
Experimental: E Coli BL21 (DE3) cells transformed with the T7 expression vector containing regularly spliced mouse p53 cDNA were used to express wild type or mutant p53 as previously described (Shohat-Foord et at., 1991; Wolkowicz et al., 1995). For protein induction, IPTG at a final concentration of 0.4 mM was added when the cells had reached an O.D.600 of 0.8–1.0. Three hours after induction, the cells were harvested from a 200 ml culture by centrifugation, and the pellet was resuspended in 5 ml of ice-cold lysis buffer (20 mM Tris-HCl, pH: 7.4; 500 mM NaCl; 10% glycerol; 1 mM EDTA; 1 mM PMSF; 5 μg/ml leupeptine; 10 μg/ml aprotinin and 0.1% NP40). The lysate was subjected to sonication for 10 cycles of 15 s of sonication followed by 15 s of gentle swirling. The solicited sample was subjected to two cycles of freeze-thaw and then centrifuged for 10 min at 10.000× g. […]
[…] Antibodies were measured after booster immurdzation.
For the ELISA assay flat bottom maxi-sorb plates (Nunc, Roskilde, Denmark) were coated with 50 μl per well of mutant or wild type p53 at a concentration of 10 μg/ml. […] After washing, the plates were incubated with the substrate, p-nitrophenil phosphate disodium (Sigma) and read using an ELISA reader at 405 nm. Sera manifesting an O.D. reading, after substraction of the background, of 0.3 or greater, were scored as positive.

[2] = tested on: Meth A Sarcoma Cells; test: Rejection of Meth A tumor challenge in immunized mice; format: in vivo; settings: BALB/c mice immunized with 100 μg CDR-based peptide
Experimental: (a) The Meth A tumor is a transplantable 3-methylcholantrene-induced sarcoma of BALB/c origin (Old et al., 1962) that has three mutations in the p53 coding sequence (Arai et al., 1986). The cells were grown in DMEM containing 10% heat-inactivated fetal calf serum (FCS), and passaged through BALB/c mice to select for tumorogenicity. For challenge, mice were injected intradermally with 10^6 Meth A cells. […] Rejection was scored as the disappearance of the tumor mass within 20 days after tumor challenge.
To learn whether immunization with anti-p53 mAb might influence in vivo the development of a tumor bearing a mutated form of the p53 molecule, groups of BALB/c female mice were immunized as above with either mAb 240, mAb 246, mAb 421 or mAb 9E 10. The mice were challenged intradermally with 10^6 Meth A tumor cells 10 days after the boost. Non-immunized mice were also tested.
Immunization of BALB/c mice with peptides V–IX of Example 3 was carried out as described for the whole mAbs in Materials and Methods, section iv, using 100 μg of peptide, and then assayed for the development of anti-p53 antibodies.

## GVYYCWQGTHSPLTFGAGTK [Peptide VI, includes CDR3 of the light chain of mAb 421]
[1]
  incidence of mice developing IgG anti-p53 antibodies (ELISA assay): 7/10
[2]
  Incidence of Rejected Tumors: 5/5

## VYFCQQSNSWPVHARGGGTK [Peptide IX, includes CDR3 of the light chain of mAb 248]
[2]
  Incidence of Rejected Tumors: 4/5

## AVYYCARSGSRFDYWGEGTT [Peptide VIII, includes CDR3 of the heavy chain of mAb 248]
[2]
  Incidence of Rejected Tumors: 4/5

## GDINPNNGYTIYNQKVKGKA [Peptide VII, includes CDR2 of the heavy chain of mAb 246]
[2]
  Incidence of Rejected Tumors: 5/5

## YYCQHIRELTRSEGGPS [Peptide V, includes CDR3 of the light chain of mAb 240]
[1]
  incidence of mice developing IgG anti-p53 antibodies (ELISA assay): 8/10
[2]
  Incidence of Rejected Tumors: 4/5
